Tests used:
[1] = molecular target: Cyclin-dependent kinase 2/cyclin E (Homo sapiens, UniProt P24941); assay: Inhibition of human cdk2/cyclin E by SPA; format: protein-complex assay
[2] = Cytotoxicity against VeroC1008 cells at 6.25 to 50 ug/ml by neutral red uptake assay; format: cell-based; details: chlorocebus sabaeus, vero
[3] = molecular target: Cyclin-dependent kinase 5/CDK5 activator 1 (Homo sapiens, UniProt Q00535); assay: Inhibition of human cdk5/p25 by SPA; format: protein-complex assay
Sequence of Cyclin-dependent kinase 5/CDK5 activator 1 (Q00535 whole entry): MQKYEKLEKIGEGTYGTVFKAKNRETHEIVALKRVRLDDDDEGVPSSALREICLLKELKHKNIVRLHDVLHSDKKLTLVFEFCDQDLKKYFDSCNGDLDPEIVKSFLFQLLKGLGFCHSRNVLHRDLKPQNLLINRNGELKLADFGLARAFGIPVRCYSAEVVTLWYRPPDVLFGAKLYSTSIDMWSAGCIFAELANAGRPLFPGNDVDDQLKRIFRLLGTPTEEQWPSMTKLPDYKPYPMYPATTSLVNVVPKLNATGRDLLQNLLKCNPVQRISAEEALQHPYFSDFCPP
Sequence of Cyclin-dependent kinase 5/CDK5 activator 1 (Q15078 whole entry, further chain): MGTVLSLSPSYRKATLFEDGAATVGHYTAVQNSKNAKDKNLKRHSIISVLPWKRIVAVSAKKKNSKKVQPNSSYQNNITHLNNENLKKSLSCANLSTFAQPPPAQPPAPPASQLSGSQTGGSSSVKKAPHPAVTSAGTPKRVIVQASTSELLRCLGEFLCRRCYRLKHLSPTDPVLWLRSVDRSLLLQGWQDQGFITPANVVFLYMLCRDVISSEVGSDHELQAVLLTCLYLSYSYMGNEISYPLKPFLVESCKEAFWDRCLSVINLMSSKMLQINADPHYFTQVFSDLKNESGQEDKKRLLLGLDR

Homo sapiens = organism: Homo sapiens; assay: Selectivity for human cdk5/[…] over human cdk2/cyclin E

For `NNC(=O)CSc1nnc(Cc2csc(NCCC(=O)O)n2)n1NC(=O)c1ccc(Cl)cc1`, the IC50 [1] was 6340 nM, the Activity [2] was “Non-toxic” and the IC50 [3] was 64 nM. The Ratio IC50 (Homo sapiens) was 99.
With `CC(=O)Nc1nc(Cc2nnc(SCC#N)n2NC(=O)c2ccc(Cl)cc2)cs1` the IC50 [1] was 1140 nM, the Activity [2] was “Non-toxic” and the IC50 [3] was 62 nM. For the same compound, the Ratio IC50 (Homo sapiens) was 18.3.
In the case of `CC(=O)Nc1nc(Cc2nnc(S)n2N)cs1`, the IC50 [1] is reported as 50 nM, the Activity [2] is reported as “Non-toxic” and the IC50 [3] is reported as 48 nM. It also gave a Ratio IC50 (Homo sapiens) of 1.
For `N#CCSc1nnc(Cc2csc(NC(=O)c3ccccc3)n2)n1NC(=O)c1ccc(Cl)cc1`, the IC50 [1] was 1340 nM, the Activity [2] was “Non-toxic” and the IC50 [3] was 64 nM. It also gave a Ratio IC50 (Homo sapiens) of 21.
With `CC(=O)Nc1nc(Cc2nnc(SCC(=O)N/N=C/c3ccccc3)n2NC(=O)c2ccc(Cl)cc2)cs1` the IC50 [1] was 512 nM, the Activity [2] was “Non-toxic” and the IC50 [3] was 30 nM. For the same compound, the Ratio IC50 (Homo sapiens) was 17.
For `CC(=O)Nc1nc(Cc2nnc(SCC(=O)NN)n2NC(=O)c2ccc(Cl)cc2)cs1`, the IC50 [1] was 624 nM, the Activity [2] was “Non-toxic” and the IC50 [3] was 72 nM. The Ratio IC50 (Homo sapiens) was 8.6.
For `COC(=O)CSc1nnc(Cc2csc(NC(C)=O)n2)n1NC(=O)c1ccc(Cl)cc1`, the Activity [2] was “Non-toxic” and the IC50 [3] was 380 nM.
With `CC(=O)Nn1c(Cc2csc(NCCC(=O)O)n2)n[nH]c1=S` the Activity [2] was “Non-toxic” and the IC50 [3] was 436 nM.
With `NNC(=O)CSc1nnc(Cc2csc(NC(=O)c3ccccc3)n2)n1NC(=O)c1ccc(Cl)cc1` the IC50 [1] was 468 nM, the Activity [2] was “Non-toxic” and the IC50 [3] was 34 nM. The Ratio IC50 (Homo sapiens) was 13.8.
With `CC(=O)Nc1nc(Cc2nnc(S)n2NC(=O)c2ccc(Cl)cc2)cs1` the Activity [2] was “Non-toxic” and the IC50 [3] was 462 nM.
With `CC(=O)NNC(=O)CSc1nnc(Cc2csc(NC(=O)c3ccccc3)n2)n1NC(=O)c1ccccc1` the Activity [2] was “Non-toxic” and the IC50 [3] was 564 nM.
With `CC(=O)Nn1c(Cc2csc(NC(=O)CCl)n2)nnc1SCc1nnc(S)n1N` the Activity [2] was “Non-toxic” and the IC50 [3] was 4640 nM.
With `O=C(CSc1nnc(Cc2csc(NC(=O)CCl)n2)n1NC(=O)c1ccc(Cl)cc1)N/N=C/c1ccccc1` the IC50 [1] was 51 nM, the Activity [2] was “Non-toxic” and the IC50 [3] was 42 nM. It also gave a Ratio IC50 (Homo sapiens) of 1.2.
With `NNC(=O)CSc1nnc(Cc2csc(NC(=O)CCl)n2)n1NC(=O)c1ccc(Cl)cc1` the IC50 [1] was 890 nM, the Activity [2] was “Non-toxic” and the IC50 [3] was 44 nM. For the same compound, the Ratio IC50 (Homo sapiens) was 20.
For `CC(=O)Nn1c(Cc2csc(NC(=O)CCl)n2)nnc1SCC(=O)NN`, the Activity [2] was “Non-toxic” and the IC50 [3] was 201 nM.
In the case of `CC(=O)Nn1c(Cc2csc(NC(=O)c3ccccc3)n2)nnc1SCC(=O)NNC(=O)c1ccccc1`, the Activity [2] is reported as “Non-toxic” and the IC50 [3] is reported as 413 nM.
With `O=C(O)CCNc1nc(Cc2nnc(SCC(=O)NNC(=O)CCl)n2NC(=O)c2ccccc2)cs1` the Activity [2] was “Non-toxic” and the IC50 [3] was 462 nM.
With `Nn1c(CSc2nnc(Cc3csc(NCCC(=O)O)n3)n2NC(=O)c2ccc(Cl)cc2)n[nH]c1=S` the Activity [2] was “Non-toxic” and the IC50 [3] was 6650 nM.
For `COC(=O)CSc1nnc(Cc2csc(NCCC(=O)O)n2)n1NC(=O)c1ccccc1`, the Activity [2] was “Non-toxic” and the IC50 [3] was 648 nM.
With `O=C(O)CCNc1nc(Cc2nnc(SCC(=O)NNC(=O)c3ccccc3)n2NC(=O)c2ccc(Cl)cc2)cs1` the Activity [2] was “Non-toxic” and the IC50 [3] was 268 nM.
In the case of `CC(=O)NNC(=O)CSc1nnc(Cc2csc(NC(=O)CCl)n2)n1NC(=O)c1ccccc1`, the Activity [2] is reported as “Non-toxic” and the IC50 [3] is reported as 356 nM.
With `O=C(CSc1nnc(Cc2csc(NC(=O)CCl)n2)n1NC(=O)c1ccccc1)N/N=C/c1ccccc1` the Activity [2] was “Non-toxic” and the IC50 [3] was 467 nM.
For `COC(=O)CSc1nnc(Cc2csc(NCCC(=O)O)n2)n1NC(=O)c1ccc(Cl)cc1`, the Activity [2] was “Non-toxic” and the IC50 [3] was 560 nM.
With `Nn1c(S)nnc1CSc1nnc(Cc2csc(NC(=O)CCl)n2)n1NC(=O)c1ccccc1` the Activity [2] was “Non-toxic” and the IC50 [3] was 6990 nM.
In the case of `COC(=O)CSc1nnc(Cc2csc(NCCC(=O)O)n2)n1NC(C)=O`, the Activity [2] is reported as “Non-toxic” and the IC50 [3] is reported as 746 nM.
With `CC(=O)Nn1c(Cc2csc(NCCC(=O)O)n2)nnc1SCC(=O)NN` the Activity [2] was “Non-toxic” and the IC50 [3] was 943 nM.
In the case of `CC(=O)Nn1c(Cc2csc(NC(=O)CCl)n2)nnc1SCC#N`, the Activity [2] is reported as “Non-toxic” and the IC50 [3] is reported as 415 nM.
In the case of `O=C(CSc1nnc(Cc2csc(NC(=O)c3ccccc3)n2)n1NC(=O)c1ccc(Cl)cc1)NNC(=O)c1ccccc1`, the Activity [2] is reported as “Non-toxic” and the IC50 [3] is reported as 484 nM.
In the case of `CC(=O)Nc1nc(Cc2nnc(SCSc3nnc(Cc4csc(NC(C)=O)n4)n3NC(=O)c3ccc(Cl)cc3)n2NC(=O)c2ccc(Cl)cc2)cs1`, the Activity [2] is reported as “Non-toxic” and the IC50 [3] is reported as 382 nM.
For `Nn1c(S)nnc1Cc1csc(NCCC(=O)O)n1`, the Activity [2] was “Non-toxic” and the IC50 [3] was 264 nM.
For `CC(=O)NNC(=O)CSc1nnc(Cc2csc(NC(=O)CCl)n2)n1NC(=O)c1ccc(Cl)cc1`, the Activity [2] was “Non-toxic” and the IC50 [3] was 464 nM.
In the case of `COC(=O)CSc1nnc(Cc2csc(NC(=O)c3ccccc3)n2)n1NC(=O)c1ccccc1`, the Activity [2] is reported as “Non-toxic” and the IC50 [3] is reported as 364 nM.
With `N#CCSc1nnc(Cc2csc(NCCC(=O)O)n2)n1NC(=O)c1ccccc1` the Activity [2] was “Non-toxic” and the IC50 [3] was 487 nM.
In the case of `NNC(=O)CSc1nnc(Cc2csc(NCCC(=O)O)n2)n1NC(=O)c1ccccc1`, the Activity [2] is reported as “Non-toxic” and the IC50 [3] is reported as 465 nM.
With `N#CCSc1nnc(Cc2csc(NC(=O)CCl)n2)n1NC(=O)c1ccc(Cl)cc1` the Activity [2] was “Non-toxic” and the IC50 [3] was 562 nM.
In the case of `CC(=O)NNC(=O)CSc1nnc(Cc2csc(NCCC(=O)O)n2)n1NC(C)=O`, the Activity [2] is reported as “Non-toxic” and the IC50 [3] is reported as 463 nM.
For `O=C(CCl)NNC(=O)CSc1nnc(Cc2csc(NC(=O)c3ccccc3)n2)n1NC(=O)c1ccccc1`, the Activity [2] was “Non-toxic” and the IC50 [3] was 542 nM.
For `O=C(CSc1nnc(Cc2csc(NC(=O)c3ccccc3)n2)n1NC(=O)c1ccccc1)NNC(=O)c1ccccc1`, the Activity [2] was “Non-toxic” and the IC50 [3] was 463 nM.
With `O=C(O)CCNc1nc(Cc2nnc(SCSc3nnc(Cc4csc(NCCC(=O)O)n4)n3NC(=O)c3ccc(Cl)cc3)n2NC(=O)c2ccc(Cl)cc2)cs1` the Activity [2] was “Non-toxic” and the IC50 [3] was 168 nM.
With `O=C(O)CCNc1nc(Cc2nnc(SCC(=O)N/N=C/c3ccccc3)n2NC(=O)c2ccccc2)cs1` the Activity [2] was “Non-toxic” and the IC50 [3] was 526 nM.
With `CC(=O)NNC(=O)CSc1nnc(Cc2csc(NC(=O)c3ccccc3)n2)n1NC(C)=O` the Activity [2] was “Non-toxic” and the IC50 [3] was 643 nM.
In the case of `CC(=O)Nn1c(Cc2csc(NC(=O)c3ccccc3)n2)nnc1SCC(=O)NN`, the Activity [2] is reported as “Non-toxic” and the IC50 [3] is reported as 186 nM.
In the case of `Nn1c(Cc2csc(NC(=O)c3ccccc3)n2)n[nH]c1=S`, the Activity [2] is reported as “Non-toxic” and the IC50 [3] is reported as 630 nM.
In the case of `O=C(O)CCNc1nc(Cc2nnc(SCC(=O)NNC(=O)CCl)n2NC(=O)c2ccc(Cl)cc2)cs1`, the Activity [2] is reported as “Non-toxic” and the IC50 [3] is reported as 180 nM.
For `CC(=O)NNC(=O)CSc1nnc(Cc2csc(NCCC(=O)O)n2)n1NC(=O)c1ccccc1`, the Activity [2] was “Non-toxic” and the IC50 [3] was 472 nM.

From ChEMBL document CHEMBL1147182, “Clubbed thiazoles by MAOS: a novel approach to cyclin-dependent kinase 5/p25 inhibitors as a potential treatment for Alzheimer's disease” (Bioorg Med Chem, 2007)
